Drawing on ChEMBL document CHEMBL1697681, “Predicting phospholipidosis using machine learning” (Mol Pharm, 2010), this text covers Phospholipidosis for 6 molecules.

The series relates to Phospholipidosis. The series can be described thus: Literature-mined public compounds from Lowe et al phospholipidosis modelling dataset.

As to `CCCC[C@@H]1CC(=O)[C@]2(O)O[C@@H]3[C@@H](NC)[C@@H](O)[C@@H](NC)[C@H](O)[C@H]3O[C@@H]2O1` [TROSPECTOMYCIN], the Phospholipidosis result is given as “Positive”.

In the case of `CCCC(CCC)C(=O)O` [VALPROIC ACID], the Phospholipidosis result is reported as “Negative”.

Turning to `CC[C@]1(O)C[C@@H]2CN(CCc3c([nH]c4ccccc34)[C@@](C(=O)OC)(c3cc4c(cc3OC)N(C)[C@H]3[C@@](O)(C(=O)OC)[C@H](OC(C)=O)[C@]5(CC)C=CCN6CC[C@]43[C@@H]65)C2)C1` [VINBLASTINE], the Phospholipidosis entry is recorded as “Negative”.

With `Cc1cn([C@H]2C[C@H](N=[N+]=[N-])[C@@H](CO)O2)c(=O)[nH]c1=O` [ZIDOVUDINE], the Phospholipidosis entry is “Negative”.

`CC(c1cc2ccccc2s1)N(O)C(N)=O` (stereo unspecified) [ZILEUTON]: the Phospholipidosis entry is “Negative”.

As to `CN(C)C/C=C(/c1ccc(Br)cc1)c1cccnc1` [ZIMELDINE], the Phospholipidosis result was “Positive”.
